Laboratory results reported in patent US20230174571A1, “METHOD OF TREATING SHIP1-MEDIATED DISEASES USING PELOROL DERIVATIVES” (Zebrapeutics Inc., priority 2020, published 2023).

How the values were obtained:
[1] = target: T1, SHIP1 and STAT3 (Mus musculus, UniProt Q9ES52, Y190F); test: In vitro pull down assay of His6-SHIP1 with STAT3; assay type: cell-based; settings: Y190F vs wild-type SHIP1 cells; 5 minutes stimulation
T1 construct: expressed in transfected cells; host or cells: J17 (SHIP1-/- mouse BMDM-derived line), lentiviral transduction
T1 sequence (Q9ES52 1-1191 Y190F): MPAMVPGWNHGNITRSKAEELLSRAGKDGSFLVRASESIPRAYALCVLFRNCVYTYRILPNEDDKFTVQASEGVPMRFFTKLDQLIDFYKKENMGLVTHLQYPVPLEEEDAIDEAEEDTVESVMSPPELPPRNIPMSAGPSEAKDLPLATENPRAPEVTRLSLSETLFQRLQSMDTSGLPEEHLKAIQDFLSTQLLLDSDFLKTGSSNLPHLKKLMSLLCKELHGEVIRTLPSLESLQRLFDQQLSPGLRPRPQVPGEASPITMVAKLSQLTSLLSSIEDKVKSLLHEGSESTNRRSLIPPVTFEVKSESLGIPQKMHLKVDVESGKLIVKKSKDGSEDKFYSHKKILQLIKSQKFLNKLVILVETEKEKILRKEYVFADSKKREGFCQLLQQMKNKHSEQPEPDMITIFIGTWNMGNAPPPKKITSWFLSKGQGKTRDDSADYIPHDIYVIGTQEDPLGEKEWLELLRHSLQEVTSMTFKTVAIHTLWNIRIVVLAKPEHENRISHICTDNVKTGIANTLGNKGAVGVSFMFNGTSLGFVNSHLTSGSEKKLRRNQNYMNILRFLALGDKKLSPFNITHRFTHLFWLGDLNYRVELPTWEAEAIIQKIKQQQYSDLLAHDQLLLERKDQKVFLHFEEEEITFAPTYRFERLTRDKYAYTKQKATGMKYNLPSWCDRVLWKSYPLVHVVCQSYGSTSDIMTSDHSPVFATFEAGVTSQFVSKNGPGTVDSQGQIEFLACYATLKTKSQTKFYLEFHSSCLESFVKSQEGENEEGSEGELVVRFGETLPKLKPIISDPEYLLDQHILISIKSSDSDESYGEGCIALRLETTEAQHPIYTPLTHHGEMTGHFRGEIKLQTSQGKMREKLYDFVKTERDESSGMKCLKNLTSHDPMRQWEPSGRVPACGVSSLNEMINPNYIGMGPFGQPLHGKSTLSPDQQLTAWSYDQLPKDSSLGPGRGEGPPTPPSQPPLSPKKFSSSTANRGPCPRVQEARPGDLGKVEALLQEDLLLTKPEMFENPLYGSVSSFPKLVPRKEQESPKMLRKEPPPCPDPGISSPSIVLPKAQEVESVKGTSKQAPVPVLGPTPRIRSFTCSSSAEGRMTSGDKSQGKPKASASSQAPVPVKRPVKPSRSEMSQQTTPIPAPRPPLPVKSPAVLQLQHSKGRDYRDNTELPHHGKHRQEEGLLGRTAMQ
Procedure: In vitro pull down assay. J17 His6-SHIP1 and Y190F cells were seeded at 2×10^6 cells per well in a 6-well plate. After overnight incubation, fresh cell media was added for 30 minutes before stimulation with 100 ng/ml IL10, […] or 20 μM compound I-2 for 5 minutes. Cells were lysed with Protein Solubilization Buffer (PSB, 50 mM Hepes, pH 7.5, […], 10 mM Na Pyrophosphate, 2 mM NaVO4, 2 mM Na Molybdate, 2 mM EDTA) containing 1% octylglucoside, 0.01 M imidazole, and protease inhibitor cocktail (Roche Diagnostics, Laval, QC) for 30 minutes at 4° C. and centrifuged at 10000 rpm for 15 minutes. EDTA resistant Ni beads (Roche Diagnostics, Laval, QC) were added to supernatants and the mixture incubated at 4° C. for 1 hour before spinning down and washing of beads three times with 0.1% octylglucoside wash buffer in PSB. Bead samples and starting material cell lysates were separated on a 7.5% SDS-PAGE gel.
Immunoblotting. Protein lysates were separated on SDS-PAGE gels and transferred onto polyvinylidene fluoride (PVDF) membrane (Millipore, Etobicoke, ON). Membranes were blocked and probed, where appropriate, with the following primary antibodies overnight: SHIP1 (P1C1) (Santa Cruz Biotechnology), pSHIP1 (Y190) (Kinexus), STAT3 (9D8) (ThermoFisher Scientific), pSTAT3 (Y705) (Thermo Fisher Scientific), STAT1 (BD Transduction Laboratories), pSTAT1 (Y701) (Upstate Biotechnology), GAPDH and actin (Sigma-Aldrich). Membranes were developed with either Alexa Fluor® 660 anti-mouse IgG or Alexa Fluor® 680 anti-rabbit IgG antibodies (Thermo Fisher Scientific) and imaged using a LI-COR Odyssey Imager.

[2] = tested on: CLP-induced sepsis; test: Caecum Ligation and Puncture (CLP) sepsis model; assay type: in vivo, mouse; settings: CLP mice, oral gavage; vs. 20% in CLP group without drug
Source text: The mouse CLP model is well-accepted clinically relevant method for anti-sepsis drug testing. The surgical operation included opening of the mouse abdomen, ligation of the cecum and puncture of the ligated cecum with a needle. Rittirsch, 2009 Method was followed to induce Mid to High grade experimental sepsis to achieve 70-100% […] rate over 7 days after CLP operation.
Methods: Five groups (n=10 each) of mice were designed with (1) a blank control, (2) Sham control (abdomen operation was performed but without cecal ligation/puncture), (3) CLP group (operation with cecal ligation/puncture), (4) CLP+compound I-1 (MN100) (3 mg/kg/d), and (5) CLP+compound I-1 (MN100) (10 mg/kg/d). ZPR-MN100 (compound I-1) was given 3 days before CLP operation and continued to 7 days after CLP. ZPR-MN100 was delivered via oral gavage twice a day. […] Mouse condition and survival were recorded every day. Seven days after CLP, the experiment was terminated and survival curves were drawn using GraphPad Prism.

| Molecule | reduction of Y190F SHIP1 mutant ability to interact with STAT3 [1] [fold] | 7-day survival rate [2] [%] |
| --- | --- | --- |
| IL10: anti-inflammatory cytokine interleukin-10 | 2 |  |
| CC12CCC3C(C)(C)C(N)CCC3(C)C1Cc1cc(O)cc(O)c12 (stereo not drawn) [Compound I-2] | 2 |  |
| Cc1cc(O)cc2c1C1(C)CCC3C(C)(C)CCCC3(C)C1C2 (stereo not drawn) [Compound I-1] |  | 50 |
